The results in this text go back to US7078403B1, “Antiviral agents” (Biota Scientific Management Pty Ltd., priority 1999, dated 2006).

One data set relates to HRV type 1A. In words: Inhibition of viral cytopathic effect (CPE), visual scoring or neutral red, HRV type 1A in MRC-5 cells. It is filed as cell-based, human rhinovirus. To be noted: for Activity on Rhinovirus Type 1A EC50: HRV type 1A in MRC-5 cells, CPE inhibition; for Activity on Rhinovirus Type 1A SI: selectivity index = CC50 or MTC divided by EC50, HRV type 1A, MRC-5 cells. On the technique in general: Damage to the host cells serves as the signal in cytopathic effect assays.

Another data set has as its system HRV type 2. In words: Inhibition of viral cytopathic effect (CPE), visual scoring or neutral red, HRV type 2 in KB cells. It is filed as cell-based, human rhinovirus. Conditions: for Activity on Rhinovirus Type 2 EC50: HRV type 2 in KB cells, CPE inhibition; for Activity on Rhinovirus Type 2 SI: selectivity index = CC50 or MTC divided by EC50, HRV type 2, KB cells.

Data set [1] has as its system human embryo lung (MRC-5) cells. In words: Cytotoxicity (CC50 or MTC) in uninfected MRC-5 cells. To be noted: unit not given.

Take `CCON=C(C)c1ccc(OCCC2CCN(c3ccc(Cl)nn3)CC2)cc1` [Compound 3]: in the data set with HRV type 1A, the “Activity on Rhinovirus Type 1A EC50” value was found to be 0.005 µg/mL and the “Activity on Rhinovirus Type 1A SI” value worked out at 1841. Also, in the data set on HRV type 2, the “Activity on Rhinovirus Type 2 EC50” value came to 0.01 µg/mL and the “Activity on Rhinovirus Type 2 SI” value is given as more than 100. In data set [1], the “Activity on Rhinovirus Type 1A MTC” value was more than 10.0.

With `CCON=C(C)c1ccc(OCCC2CCN(c3ccc(C)nn3)CC2)cc1` [Compound 4], in the data set on HRV type 1A, the “Activity on Rhinovirus Type 1A EC50” value came to 0.39 µg/mL and the “Activity on Rhinovirus Type 1A SI” value amounted to 25.55. In the data set with HRV type 2, the “Activity on Rhinovirus Type 2 EC50” value came out at 0.5 µg/mL and the “Activity on Rhinovirus Type 2 SI” value is more than 2. Moreover, in data set [1], the “Activity on Rhinovirus Type 1A MTC” value stood at 10.00.

Take `CCON=C(C)c1cc(OC)c(OCCC2CCN(c3ccc(Cl)nn3)CC2)c(OC)c1` [Compound 6]: in the data set on HRV type 1A, the “Activity on Rhinovirus Type 1A EC50” value came to 0.06 µg/mL and the “Activity on Rhinovirus Type 1A SI” value is on record as more than 167.09. Moreover, in the data set with HRV type 2, the “Activity on Rhinovirus Type 2 EC50” value was 0.1 µg/mL and the “Activity on Rhinovirus Type 2 SI” value is listed as more than 500. Besides, the “Activity on Rhinovirus Type 1A MTC” value in data set [1] was more than 10.00.

On to `CCON=Cc1cccc(OCCCC2CCN(c3ccc(C)nn3)CC2)c1` [Compound 98], for which, in the data set on HRV type 1A, the “Activity on Rhinovirus Type 1A EC50” value is 0.255 µg/mL and the “Activity on Rhinovirus Type 1A SI” value is recorded as more than 3. Also, in data set [1], the “Activity on Rhinovirus Type 1A MTC” value was more than 1.

In the case of `C=CCON=Cc1cccc(OCCCC2CCN(c3ccc(C)nn3)CC2)c1` [Compound 99], in the data set on HRV type 1A, the “Activity on Rhinovirus Type 1A EC50” value amounted to 0.205 µg/mL and the “Activity on Rhinovirus Type 1A SI” value was more than 4. The “Activity on Rhinovirus Type 1A MTC” value in data set [1] is reported as more than 1.

On to `CON=Cc1ccc(OCCCC2CCN(c3cccnn3)CC2)cc1` [Compound 102], for which, in the data set with HRV type 1A, the “Activity on Rhinovirus Type 1A EC50” value was 0.059 µg/mL and the “Activity on Rhinovirus Type 1A SI” value is more than 17. Further, the “Activity on Rhinovirus Type 1A MTC” value in data set [1] is reported as more than 1.

In the case of `CCON=Cc1ccc(OCCCC2CCN(c3cccnn3)CC2)cc1` [Compound 103], in the data set on HRV type 1A, the “Activity on Rhinovirus Type 1A EC50” value came to 0.266 µg/mL and the “Activity on Rhinovirus Type 1A SI” value is on record as more than 3. Also, the “Activity on Rhinovirus Type 1A MTC” value in data set [1] is on record as more than 1.

Regarding `CON=Cc1cccc(OCCCC2CCN(c3cccnn3)CC2)c1` [Compound 105], in the data set on HRV type 1A, the “Activity on Rhinovirus Type 1A EC50” value is 0.126 µg/mL and the “Activity on Rhinovirus Type 1A SI” value is reported as more than 8. The “Activity on Rhinovirus Type 1A MTC” value in data set [1] is recorded as more than 1.

Turning to `C=CCON=Cc1cccc(OCCCC2CCN(c3cccnn3)CC2)c1` [Compound 107], in the data set with HRV type 1A, the “Activity on Rhinovirus Type 1A EC50” value turned out to be 0.062 µg/mL and the “Activity on Rhinovirus Type 1A SI” value is more than 16. The “Activity on Rhinovirus Type 1A MTC” value in data set [1] was more than 1.

Consider `CON=C(C)c1cc(C)c(OCCCc2cc(C)no2)c(C)c1` [Compound 109], for which, in the data set with HRV type 1A, the “Activity on Rhinovirus Type 1A EC50” value was 0.053 µg/mL and the “Activity on Rhinovirus Type 1A SI” value is given as more than 18.8. In data set [1], the “Activity on Rhinovirus Type 1A MTC” value is given as more than 1.

In the case of `C#CCON=Cc1cc(C)c(OCCCc2cc(C)no2)c(C)c1` [Compound 119], in the data set on HRV type 1A, the “Activity on Rhinovirus Type 1A EC50” value turned out to be 0.046 µg/mL and the “Activity on Rhinovirus Type 1A SI” value is more than 21.4. Further, the “Activity on Rhinovirus Type 1A MTC” value in data set [1] is reported as more than 1.

Take `CCON=Cc1cc(C)c(OCCCCCCc2cc(C)no2)c(C)c1` [Compound 120]: in the data set on HRV type 1A, the “Activity on Rhinovirus Type 1A EC50” value amounted to 0.04 µg/mL and the “Activity on Rhinovirus Type 1A SI” value is more than 20. Moreover, in data set [1], the “Activity on Rhinovirus Type 1A MTC” value is more than 1.

As for `CCON=Cc1cc(C)c(OCCCCCCCc2cc(C)no2)c(C)c1` [Compound 121], in the data set with HRV type 1A, the “Activity on Rhinovirus Type 1A EC50” value stood at 0.05 µg/mL and the “Activity on Rhinovirus Type 1A SI” value was more than 16. For the same compound, in data set [1], the “Activity on Rhinovirus Type 1A MTC” value is recorded as more than 1.

Turning to `CCON=Cc1cc(C)c(OCCCCCc2cc(C)no2)c(C)c1` [Compound 122], in the data set with HRV type 1A, the “Activity on Rhinovirus Type 1A EC50” value was 0.181 µg/mL and the “Activity on Rhinovirus Type 1A SI” value is on record as more than 5. The “Activity on Rhinovirus Type 1A MTC” value in data set [1] is more than 1.

As for `CCON=Cc1cc(C)c(OCCCCc2cc(C)no2)c(C)c1` [Compound 123], in the data set with HRV type 1A, the “Activity on Rhinovirus Type 1A EC50” value was 0.060 µg/mL and the “Activity on Rhinovirus Type 1A SI” value is recorded as more than 16. The “Activity on Rhinovirus Type 1A MTC” value in data set [1] is more than 1.

In the case of `Cc1cc(CCCOc2c(C)cc(C=NOCC(F)(F)F)cc2C)on1` [Compound 124], in the data set with HRV type 1A, the “Activity on Rhinovirus Type 1A EC50” value is 0.719 µg/mL and the “Activity on Rhinovirus Type 1A SI” value is reported as more than 1. In data set [1], the “Activity on Rhinovirus Type 1A MTC” value is reported as more than 1.

For `CCON=Cc1ccc(OCCC2CCN(c3ccc(CO)nn3)CC2)cc1` [Compound 129], in the data set on HRV type 1A, the “Activity on Rhinovirus Type 1A EC50” value was determined as 0.048 µg/mL and the “Activity on Rhinovirus Type 1A SI” value is on record as more than 20. Further, the “Activity on Rhinovirus Type 1A MTC” value in data set [1] is more than 1.

With `CCCON=Cc1cccc(OCCN2CCN(c3ccc(C)nn3)CC2)c1` [Compound 136], in the data set with HRV type 1A, the “Activity on Rhinovirus Type 1A EC50” value was determined as 0.598 µg/mL and the “Activity on Rhinovirus Type 1A SI” value is given as more than 1. Further, the “Activity on Rhinovirus Type 1A MTC” value in data set [1] is reported as more than 1.

On to `CCON=Cc1cc(C)c(OCCCc2cc(C3CC3)no2)c(C)c1` [Compound 137], for which, in the data set with HRV type 1A, the “Activity on Rhinovirus Type 1A EC50” value turned out to be 0.054 µg/mL and the “Activity on Rhinovirus Type 1A SI” value is given as more than 18. Besides, in data set [1], the “Activity on Rhinovirus Type 1A MTC” value is more than 1.

As for `CCON=Cc1cc(C)c(OCCCCc2cc(CC)no2)c(C)c1` [Compound 138], in the data set with HRV type 1A, the “Activity on Rhinovirus Type 1A EC50” value turned out to be 0.07 µg/mL and the “Activity on Rhinovirus Type 1A SI” value is on record as more than 15. In addition, in data set [1], the “Activity on Rhinovirus Type 1A MTC” value is reported as more than 1.

With `CCCc1cc(CCCCOc2c(C)cc(C=NOCC)cc2C)on1` [Compound 139], in the data set on HRV type 1A, the “Activity on Rhinovirus Type 1A EC50” value was determined as 0.19 µg/mL and the “Activity on Rhinovirus Type 1A SI” value was more than 5. Further, the “Activity on Rhinovirus Type 1A MTC” value in data set [1] was more than 1.

In the case of `CON=Cc1ccc(OCCC2CCCN(c3ccc(Cl)nn3)C2)cc1` (stereo not drawn) [Compound 140], in the data set with HRV type 1A, the “Activity on Rhinovirus Type 1A EC50” value worked out at 0.016 µg/mL and the “Activity on Rhinovirus Type 1A SI” value was more than 61. Also, in data set [1], the “Activity on Rhinovirus Type 1A MTC” value was more than 1.

As for `C=CCON=Cc1ccc(OCCC2CCCN(c3ccc(Cl)nn3)C2)cc1` (stereo not drawn) [Compound 141], in the data set on HRV type 1A, the “Activity on Rhinovirus Type 1A EC50” value is 0.166 µg/mL and the “Activity on Rhinovirus Type 1A SI” value is given as more than 6. For the same compound, the “Activity on Rhinovirus Type 1A MTC” value in data set [1] is on record as more than 1.

`CCON=Cc1ccc(OCCC2CCCN(c3ccc(Cl)nn3)C2)cc1` (stereo not drawn) [Compound 142]: in the data set on HRV type 1A, the “Activity on Rhinovirus Type 1A EC50” value came out at 0.055 µg/mL and the “Activity on Rhinovirus Type 1A SI” value is more than 18. For the same compound, the “Activity on Rhinovirus Type 1A MTC” value in data set [1] is reported as more than 1.

On to `Cc1ccc(N2CCC(CCOc3ccc(C=NOCCF)cc3)CC2)nn1` [Compound 143], for which, in the data set with HRV type 1A, the “Activity on Rhinovirus Type 1A EC50” value turned out to be 0.020 µg/mL and the “Activity on Rhinovirus Type 1A SI” value is more than 50. Also, the “Activity on Rhinovirus Type 1A MTC” value in data set [1] is reported as more than 1.

Take `CCO/N=C/c1ccc(OCCCCCNc2ccc(Cl)nn2)cc1` [Compound 147]: in the data set with HRV type 1A, the “Activity on Rhinovirus Type 1A EC50” value was 0.194 µg/mL and the “Activity on Rhinovirus Type 1A SI” value is recorded as more than 5. Further, the “Activity on Rhinovirus Type 1A MTC” value in data set [1] was more than 1.

As to `CCO/N=C/c1ccc(OCCC2CCN(c3cnc4cc(Cl)ccc4n3)CC2)cc1` [Compound 210], in the data set on HRV type 1A, the “Activity on Rhinovirus Type 1A EC50” value amounted to 3.96 µg/mL and the “Activity on Rhinovirus Type 1A SI” value is listed as more than 2.5. Moreover, the “Activity on Rhinovirus Type 1A MTC” value in data set [1] is listed as more than 10.

As to `CCO/N=C/c1ccc(Oc2cnc3cc(Cl)ccc3n2)cc1` [Compound 211], in the data set with HRV type 1A, the “Activity on Rhinovirus Type 1A EC50” value came out at 0.07 µg/mL and the “Activity on Rhinovirus Type 1A SI” value is reported as more than 151. Further, the “Activity on Rhinovirus Type 1A MTC” value in data set [1] is reported as more than 10.
